One test addresses T1, neutral endopeptidase (Rattus norvegicus, UniProt P07861).
T1 sequence (P07861 1-750): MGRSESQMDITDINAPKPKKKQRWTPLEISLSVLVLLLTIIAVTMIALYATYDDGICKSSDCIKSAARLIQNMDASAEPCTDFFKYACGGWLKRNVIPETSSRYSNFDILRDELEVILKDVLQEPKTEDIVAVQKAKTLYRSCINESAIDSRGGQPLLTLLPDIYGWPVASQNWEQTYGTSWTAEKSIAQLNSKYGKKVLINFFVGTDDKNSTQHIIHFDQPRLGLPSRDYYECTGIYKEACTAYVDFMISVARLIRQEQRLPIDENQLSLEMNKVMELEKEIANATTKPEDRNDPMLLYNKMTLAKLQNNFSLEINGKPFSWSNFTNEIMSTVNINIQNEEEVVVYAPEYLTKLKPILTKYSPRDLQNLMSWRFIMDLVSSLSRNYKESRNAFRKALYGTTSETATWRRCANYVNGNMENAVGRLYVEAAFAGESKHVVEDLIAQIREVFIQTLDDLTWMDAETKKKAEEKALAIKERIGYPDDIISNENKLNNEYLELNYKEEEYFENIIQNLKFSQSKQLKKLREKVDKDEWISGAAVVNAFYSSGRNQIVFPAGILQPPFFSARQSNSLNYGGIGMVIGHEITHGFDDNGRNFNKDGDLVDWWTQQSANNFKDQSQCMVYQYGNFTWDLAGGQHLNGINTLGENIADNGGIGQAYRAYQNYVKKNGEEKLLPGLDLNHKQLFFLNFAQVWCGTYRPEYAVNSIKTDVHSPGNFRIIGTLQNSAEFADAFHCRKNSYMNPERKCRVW
The test can be described thus: biochemical. The conditions noted are these: enzyme purified from rat kidney; Dns-Gly-Phe-Arg 0.5 mM; pH 7.5; 37°, 30 minutes; inhibitor preincubated 10 minutes. As to the method:
The in vitro neutral endopeptidase activity is determined using a fluorometric assay procedure. The assay is based upon the cleavage of the fluorescent dansylated tripeptide Dns-Gly-Phe-Arg to form Dns-Gly. The latter is extracted from the acidified mixture by ethyl acetate and is strongly fluorescent.
The incubation mixture employed for the assay contains the substance Dns-Gly-Phe-Arg (0.5 mM), tris(hydroxymethyl)aminomethane -HCl buffer (pH 7.5, 50 mM), an enzyme preparation in 0.05% Triton X-100, and water or inhibitor diluted to a final volume of 0.25 ml. The enzyme preparation is purified from rat kidney according to the procedure described by Almenoff et al. in Biochemistry Vol. 22, p. 590-599 (1983). The inhibitor is preincubated for 10 minutes with the enzyme preparation and buffer before the reaction is initiated by the addition of the substrate. Incubation is carried out at 37° for 30 minutes and the reaction is stopped by the addition of 0.25 ml. 1N HCl and extraction of the Dns-Gly product into 1.5 ml. of ethyl acetate. Relative fluorescent intensity (RFI) of the ethyl acetate extract is measured using a Ferrand Spectofluorometer at excitation and emission wavelengths of 342 and 508 nm., respectively, corrected for the RFI of a zero-time control, and compared with assays lacking inhibitor.
Runs are made at different concentrations of test compound and by use of a mathematical model the IC50 is determined. The IC50 is the concentration of test compound that inhibits activity of the enzyme by 50%.

The subject of test [1] is conscious spontaneously hypertensive rats (SHR). Put plainly: enhancement of the depressor response to exogenous ANP 99-126 in conscious spontaneously hypertensive rats (SHR). The class given is in vivo, rat (male SHR). The conditions noted are these: intravenous, 30 minutes before 3 nmole/kg. ANP 99-126; dose to increase the area under the blood pressure over time curve to 600 mm Hg. X minute. Here is the method:
The capacity of the test compounds to enhance the depressor response to exogenous ANP 99-126 in conscious spontaneously hypertensive rats (SHR) is determined according to the following procedure.
Indwelling vascular catheters are implanted in the abdominal aorta and vena cava of male SHR rats using the methods of Weeks et al. The rat is allowed at least one week recovery time. On the day of the experiment, the aortic catheter is opened and attached to a Statham transducer via a 3-way stream divider. This system allows for a continuous slow infusion of saline (approximately 10 to 15 μl/min.) from a pressurized reservoir to maintain patency of the arterial catheter. Mean arterial pressure (MAP) is continuously monitored on a strip-chart recorder.
Two hours after beginning the blood pressure measurements, the test compound (or the vehicle used to dissolve the compound) is injected intravenously (1.0 ml./kg.) and flushed in with 0.3 ml. of saline. 30 minutes later, a challenge of 3 nmole/kg. of ANP 99-126 is delivered (1.0 ml./kg. +0.3 ml. saline flush). Sufficient time is allowed after the ANP 99-126 injection to observe the maximal depressor response and a 50% recovery.
MAP is determined before ANP 99-126 administration and at 5 minute intervals until the blood pressure recovers by at least 50%. A mathematical model is used to calculate the area under the curve which extends from the time that the MAP falls to 50% of the maximal depressor response to the time of 50% recovery. Results are plotted as the log dose of inhibitor vs. the area under the curve.
The ED600 is the dose required to increase the area under the blood pressure over time curve for exogenous ANP to 600 mm Hg. X minute.

Test [2] has as its system conscious mineralocorticoid hypertensive rats. Put plainly: depressor response in conscious mineralocorticoid hypertensive rats. The class given is in vivo, rat (male Sprague-Dawley). The conditions noted are these: dose 300 μmole/kg., intravenous; DOCA hypertensive rats; MAP recorded for at least 4 hours. As to the method: The depressor response to test compounds in conscious mineralocorticoid hypertensive rats is determined according to the following procedure.
Male Sprague-Dawley rats (approximately 150 grams) are anesthetized with sodium pentobarbital and indwelling vascular catheters are implanted in the abdominal aorta and vena cava using the methods of Weeks et al., Biological Medicine, Vol. 104, p. 646 (1960).
Before closing the abdominal incision, a pellet containing 100 mg. of deoxycorticosterone acetate (DOCA) is placed in the peritoneal cavity. DOCA is released from the pellet at a constant rate for 21 days.
The rats are housed individually and given saline (0.9% sodium chloride) to drink and fed normal rat chow for the next 3 to 4 weeks. Afterwards, the catheters are opened and mean arterial pressure (MAP) is measured via a Statham pressure transducer and a strip chart recorder. Patency of the arterial catheter is maintained by the infusion of saline from a pressurized reservoir at approximately 10 to 15 μl/min.
Following 2 hours of acclimation, the test compound is injected intravenously. Each dose is delivered as 1.0 ml./kg. +0.03 ml. (an amount sufficient to fill the void volume of the catheter). The MAP is recorded for at least 4 hours.

The subject of test [3] is conscious spontaneously hypertensive rats. Put plainly: renal function (sodium excretion) following intravenous administration of test compounds. The class given is in vivo, rat. Here is the method: The renal function following administration of test compounds is determined according to the following procedure.
A catheter is contructed as follows. Pieces of 18 gauge metal tubing (about 1/4 inch in length) are inserted into two lengths of microbore Tygon tubing (0.04 inch inner diameter ×0.07 inch outer diameter). A short segment of Tygon tubing of larger diameter (0.104 inch inner diameter x 0.144 inch outer diameter) is sealed around both metal fittings. This end is to be implanted in the bladder. In order to keep the tip from becoming plugged by particulate matter, 4 holes are punched along its length.
To implant the catheters, male rats are anesthetized with sodium pentobarbital and the urinary bladder is exposed via a midline abdominal incision. A small slit is made in the dome of the urinary bladder and the tip of the catheter is inserted into the lumen. […]
During the course of the experiment, urine is collected in tared containers at specified intervals. Urine volume is determined gravimetrically (1 gram =1 ml.) and the rate of flow is calculated from the total volume/time of collection (ml./min). Sodium concentrations are measured using a Nova-1 Ion Selective Electrode Analyzer. Electrolyte excretion rates (μ Eq./min.) are calculated by multiplying the ion concentration (μ Eq./ml.) by the urine flow (mi./min.). […]

The test system of the next test is man. The settings on record: cited from earlier work.

Counter-ions that a name gives are not always drawn. Ends that are not written are not given here.

In turn, `CC(C)CC(CS)C(=O)N[C@@H](Cc1c[nH]c2ccccc12)C(=O)O` (mixture of isomers) [Example 35, (±)-N-[2-(Mercaptomethyl)-4-methyl-1-oxopentyl]-L-tryptophan] came in with a half-maximal inhibitory concentration (IC50) at neutral endopeptidase of 6.9 nM. Moreover, in test [1], the ED600 was found to be 9.2 µmol/kg. The “Change in MAI” value in test [2] is given as -56 ± 3 mm. of Hg. In the case of `C[C@H](NC(=O)C(CS)Cc1ccccc1)C(=O)N1CCC[C@H]1C(=O)O` (mixture of isomers) [Example 64, (±)-1-[N-[2-(Mercaptomethyl)-1-oxo-3-phenylpropyl]-L-alanyl]-L-proline], the 50% inhibitory concentration (IC50) against neutral endopeptidase stood at 6 nM. The “Change in MAI” value in test [2] is on record as -44 ± 5 mm. of Hg. With `CC(C)C[C@H](NC(=O)C(CS)Cc1ccccc1)C(=O)O` (single isomer, unassigned; isomer a) [Example 1, N-[2-(Mercaptomethyl)-1-oxo-3-phenylpropyl]-L-leucine (Isomer A)], the ED600 in test [1] was determined as 22.8 µmol/kg. Moreover, in test [3] (intravenous 100 mg./kg.), the “increase in sodium excretion” value was 2.4 fold. Besides, the “Change in MAI” value in test [2] is given as -65 ± 14 mm. of Hg.

Take `CC(C)C[C@H](NC(=O)C(CS)Cc1ccccc1)C(=O)O` (single isomer, unassigned; isomer b) [Example 36, N-[2-(Mercaptomethyl)-1-oxo-3-phenylpropyl]-L-leucine (isomer B)]: the ED600 in test [1] amounted to 8.22 µmol/kg.

`C[C@H](CS)C(=O)N[C@@H](Cc1ccccc1)C(=O)O` [Example 39, (S)-N-(3-Mercapto-2-methyl-1-oxopropyl)-L-phenylalanine] displayed an IC50 at neutral endopeptidase of 15 nM. In addition, the “Change in MAI” value in test [2] is reported as -55 ± 4 mm. of Hg. At neutral endopeptidase, `O=C(O)CCCCCCNC(=O)C(CS)Cc1ccccc1` (stereo not shown) [Example 52, 7-[[2-(Mercaptomethy1)-1-oxo-3-phenylpropyl]amino]-heptanoic acid] showed an IC50 of 26 nM. Also, the ED600 in test [1] came out at 15.5 µmol/kg. Moreover, in test [3] (intravenous 30 mg./kg. plus 3 mg./kg./min. for 20 minutes, conscious spontaneously hypertensive rats), the “increase in the rate of sodium excretion” value was 2.6 fold. Besides, the “Change in MAI” value in test [2] is on record as -41 ± 8 mm. of Hg. Regarding `C[C@H](NC(=O)[C@@H](S)Cc1ccccc1)C(=O)N1CCC[C@H]1C(=O)O` [Example 66, (S)-1-[N-(2-Mercapto-1-oxo-3-phenylpropyl)-L-alanyl]-L-proline], the IC50 against neutral endopeptidase is 78 nM. Further, the ED600 in test [1] came out at 2.93 µmol/kg. On neutral endopeptidase, `O=C(O)CCCCCCNC(=O)[C@H](Cc1ccccc1)N[C@@H](Cc1ccccc1)C(=O)O` [Example 79, 7-[[N-[(S)-l-Carboxy-2-phenylethyl]-L-phenylalanyl]amino]heptanoic acid] yielded an IC50 of 940 nM. That is a sub-micromolar value. As to `CC(C)C[C@H](NC(=O)[C@H](Cc1ccccc1)N[C@@H](Cc1ccccc1)C(=O)O)C(=O)O` [Example 80, N-[N-[(S)-l-Carboxy-2-phenylethyl]-L-phenylalanyl]-L-leucine], half-maximal inhibition against neutral endopeptidase (IC50) required 330 nM. Same read-out and setting: to `N=C(N)NCCC[C@H](NC(=O)CNC(=O)C(CS)Cc1ccccc1)C(=O)O` (stereo partly drawn) [Example 82, N-[N-[2-(Mercaptomethyl)-1-oxo-3-phenylpropyl]glycyl]-L-arginine] belongs 15 nM; to `CC(C)[C@H](NC(=O)CS)C(=O)N[C@@H](Cc1c[nH]c2ccccc12)C(=O)O` [lithium salt], 680 nM. Regarding “human ANF 99-126: putative circulating hormone in man, a 28 amino acid peptide called human ANF 99-126 (SLRRSSCFGGRMDRIGAQSGLGCNSFRY; ends and bridges not checked; cysteine pairing not given here; UniProt P01160 124-151, looked up)”, in the test with man, the “effect of exogenous administration to man” value is “diuresis, natriuresis, and a fall in blood pressure”.

The values are drawn from US5496805A, “Inhibitors of neutral endopeptidase” (priority 1990, dated 1996).
